Results reported in a melting point compilation (Tetko et al.; mined from patent text by program, amines drawn as free bases though some values may be those of a salt).

Structure (SMILES) | melting point [°C]
CC1CCC2C(=O)N(NC(=O)CCc3cc(C(C)(C)C)c(O)c(C(C)(C)C)c3)C(=O)C2C1 (stereo unspecified) | 87 to 92
CON=C1CCCc2cc(OCCCOc3c(Cl)cc(OCC=C(Cl)Cl)cc3Cl)ccc21 | 75 to 77
CCc1cc2c(cc1F)c(C#N)c(-c1ccc(S(=O)(=O)N[C@@H](C)C(F)(F)F)cn1)n2-c1ncccn1 | 195 to 198
O=c1cc(C=Cc2ccc(O)cc2)oc(-c2ccccc2)c1 | 198 to 201
O=C(c1ccc(O)cc1)c1oc2ccccc2c1-c1ccc(Cl)cc1 | 220 to 221
COc1cc(NC(=O)OC(C)(C)C)c(N)cc1-c1ccccc1F | 161
CC1COC(Nc2ccccc2)(c2ccnc(C(=O)c3ccc(Cl)cc3)c2)O1 (stereo unspecified) | 125 to 126
CC(C)(C)c1nnc(N=C=O)s1 | 261 to 263
CCNC1(c2ccccc2Cl)C(=O)Nc2ccc(OCC)cc21 (stereo unspecified) | 195 to 200
Cc1c(N2C[C@H](CF)[C@](C)(N)C2)c(F)cc2c(=O)c(C(=O)O)cn([C@@H]3C[C@@H]3F)c12 | 135 to 137
CC1(C)Oc2ccsc2C(NC(=O)c2ccc(C(F)(F)F)cc2)C1O (stereo unspecified) | 162 to 163
COc1cc2c(c(OC(C)=O)c1)C1CCC3(C)C(OC(C)=O)=CCC3C1CC2 (stereo unspecified) | 118
O=C(OCc1ccccc1)N1CCN(CCN2C(=O)c3ccccc3C2=O)CC1 | 89.5 to 90.5
CCNC(=O)c1c([Si](C)(C)C)ccc(Cl)c1Cl | 96 to 98
CCN(c1nc(C)cc(-c2ccccc2C(F)(F)F)n1)c1c(Br)cc(N(C)C)cc1OC | 157 to 158
CCCC(=O)c1c[nH]c2c(N3C(=O)c4ccccc4C3=O)cccc2c1=O | 318 to 320
CN(c1ccc([N+](=O)[O-])cc1[N+](=O)[O-])S(=O)(=O)c1ccccc1 | 152 to 153
Cc1c(N)cc(Cl)cc1N | 75 to 77
COC(=O)c1ccc(-c2nc(C)no2)s1 | 154 to 156
N#CCCN1CC(=O)N(CCC#N)CC1=O | 166
Cc1noc(-c2cn(-c3cccc(-c4ccccc4OC(F)(F)F)c3)cn2)n1 | 142 to 144
COc1ccc(CN(C)CCc2ccc(NC(=O)c3cccc4c(=O)c5cccc([N+](=O)[O-])c5[nH]c34)cc2)cc1OC | 197
CO/C=C(/C(=O)OC)c1ccccc1COc1cccc(N2CCCCC2)c1 | 64 to 66

Structure (SMILES) | melting point [°C]
c1ccc(N2CCN(c3nn(-c4ccccc4)c4ccccc34)CC2)cc1 | 129 to 130
Cc1ncnc2c(NC(=O)c3c(Cl)cccc3Cl)cccc12 | 223 to 225
CCOC(=O)C1(C(=O)OCC)CCC2(c3cc(OC)c(OC)cc3CCN2C(C)=O)C(C2c3cc(OC)c(OC)cc3CCN2C)C1 (stereo unspecified) | 166 to 168
CCOC(=O)c1cn2c(n1)SCCC2 | 99 to 100
O=C(c1c[nH]c2c1ccc1c3ccccc3[nH]c12)C(F)(F)F | > 295
CCCCCCCNC(=S)N(C)c1cccc(-c2ccc(CCC(=O)O)cc2)c1 | 95 to 96
OC1CC=C(c2ccc(F)cc2)CC1 (stereo unspecified) | 73 to 74.5
CN(C)CCN(C(=O)N(C)C)c1ccc(N)cn1 | 118 to 119
COC(=O)c1ccc(N=Cc2cccc(Cl)c2)cn1 | 139 to 142
N#Cc1cc(N)ccc1N1CCC(N2CCC(O)CC2)CC1 | 175
O=C(Nc1ccccc1)NC(Cc1c[nH]c2ccccc12)C(=O)NCc1cc(C(F)(F)F)cc(C(F)(F)F)c1 (stereo unspecified) | 219 to 221
O=C1CCC(N2Cc3c(OCc4ccc(C(F)(F)F)cc4)cccc3C2=O)C(=O)N1 (stereo unspecified) | 241 to 243
CCOC(=O)C1=C(C)OC(=O)C1=C(C)O | 106 to 108
COc1cc2c(cc1OC)/C(=C\c1ccc(OP(=O)(O)O)cc1)C(=O)N2 | 218 to 220
CC(C)c1cc(C(=O)CNc2ccc(C(=O)O)cc2)oc1C(C)C | 184 to 186
Cn1c(-c2ccc(C(O)(C(F)(F)F)C(F)(F)F)cc2)cc2ccccc2c1=O | 265 to 266
CC(CCCC(F)(C(F)(F)F)C(F)(F)F)C1CC(=O)C2=C3CCC4CC(O)CCC4(C)C3CCC21C (stereo unspecified) | 177 to 179
CCCCc1ccccc1OCCCOc1cccc2c(=O)cc(C(=O)O)oc12 | 168
CCCCCC1=CC(=O)C2=C(OC(C)(C)c3ccc(C)cc32)C1=O | 53 to 54
O=C1NC(O)c2c1c1c3ccccc3[nH]c1c1[nH]c3ccccc3c21 (stereo unspecified) | > 300
O=C(C=Cc1ccc(F)cc1)N1CCOCC1 | 136 to 137
CNc1nc(Cl)cc(NS(=O)(=O)c2ccc(Cl)cc2)n1 | 196 to 198
Cc1c(Br)c(=O)n(C2CCCCC2)c(=O)n1N=Cc1ccc(Cl)c(Cl)c1 | 188 to 189

Structure (SMILES) | melting point [°C]
O=C1C(=Cc2ccc(Cl)s2)CCc2cc(OCCn3ccnc3)ccc21 | 143 to 144
CC(C#N)c1ccc2nc(N)sc2c1 (stereo unspecified) | 165
CCOC(=O)COc1ccc(NS(C)(=O)=O)cc1C | 83 to 84
CCC1SC(=O)N(Cc2ccc(N)cc2)N=C1c1ccc(OC)c(OC)c1 (stereo unspecified) | 105
Cc1sc(-c2ccccc2)nc1CCOc1ccc(C[C@@H](C(=O)O)n2cccc2)cc1 | 157 to 158
O=S(=O)(c1ccccc1)c1cc2cc(Cl)ccc2[nH]1 | 137 to 138
CCOC(=O)c1c(CC(C)C)nc2c(C(F)(F)F)cccc2c1O | 100
Sc1nnc(-c2ccc3ncsc3c2)o1 | 274 to 275
Cc1oc(-c2ccco2)nc1COc1ccc(COc2nn(Cc3ccccc3)cc2C(=O)O)cn1 | 151 to 152
CC(=O)OCC1OC(Oc2nc[nH]c2C(N)=O)C(OC(C)=O)C1OC(C)=O (stereo unspecified) | 132 to 134
COC(=O)C(C)N(C(=O)CF)c1c(C)cccc1Cl (stereo unspecified) | 101 to 103
CNC(=O)N(O)C(C)C#Cc1ccc(Cl)cc1 (stereo unspecified) | 151 to 153
CN(Cc1cccc2c1CN(C1CCC(=O)NC1=O)C2=O)C(=O)Nc1ccc(Cl)c(Cl)c1 (stereo unspecified) | 275 to 277
O=C(O)COc1ccc(-c2c3ccccc3cc3sc4cc(OCC(=O)O)ccc4c23)cc1 | 220 to 222
COc1ccc(Oc2c(C)cc(CC#N)cc2C)cc1C(C)C | 56 to 58
Nc1ccc(CNC(=O)OCc2ccccc2)cc1 | 60 to 64
CCC(C)c1cc(C=O)c(O)c(S(C)(=O)=O)c1 (stereo unspecified) | 68 to 70
Cc1ccc(-c2ccc(OC3SCC(O)C(O)C3O)c(F)n2)cn1 (stereo unspecified) | 189 to 190
CCCCCCCCCCCCCCCC(=O)CC(=O)OCC | 37 to 38
CCn1cc(C(=O)O)c(=O)c2cc3cc(F)c(N4CCNC(c5cccc(F)c5)C4)cc3nc21 (racemic) | 284
O=C(O)CCCc1ccc2c(c1)CCC2 | 57 to 58

Second part, the molecule after the results:

melting point [°C] | Structure (SMILES)
204 | Cc1ccc2cccc(OCc3c(Cl)ccc(N(C)C(=O)CN4C(=O)c5ccccc5C4=O)c3Cl)c2n1
73 to 76 | CCCCCCCCCCCc1ccc(CCCC(N)(CO)CCO)cc1 (stereo unspecified)
123 to 125 | O=C1C=C2CN(C(C(=O)C3CC3)c3ccccc3F)CCC2S1 (stereo unspecified)
97 to 100 | CCC(C(=O)N(C)C)n1cc(Br)cn1 (stereo unspecified)
218 | Cc1cc(N)nc(CCc2nc3cc(-c4ccc(C#N)cc4)cnc3[nH]2)c1
143 to 145 | CCN1C(=O)C(C)(C)C(=O)N(C)c2cc(CN(CCn3ccc4oc(C)cc4c3=O)Cc3ccncc3)ccc21
232 to 233 | CC(C)Cn1c(CNC(=O)OC(C)(C)C)c(-c2ccccc2F)c2cc(C(N)=O)ccc2c1=O
117 to 118 | Oc1cccc(C(F)(F)F)n1
138 to 140 | Cc1cc(N)n(C(CCc2ccccc2)=NO)n1
133 to 136 | O=C(O)[C@@H]1C[C@H](O)CN1C(=O)c1ccccc1
219 to 220 | COc1ccc(Nc2nc(NC(=O)C(C)(C)C)nc3[nH]c4ccccc4c23)cc1
171 to 172 | Nc1nc(Nc2ccccc2)sc1C(=O)c1ccsc1
89 to 93 | Cc1ccc2c3c(ccc2n1)OC[C@H](CNC[C@@H]1CCc2[nH]c4ccc(F)cc4c2C1)O3
110 to 112 | CCc1coc(=O)n1C(=O)c1ccccc1Cl
226 to 229 | CC1=C(C#N)C(=C(C#N)C#N)OC1(C)c1ccc(Cl)c(Cl)c1 (stereo unspecified)
165 to 167 | CN1C(=O)CCC2(C)c3ccc(S(=O)(=O)c4ccccc4)cc3CCC12 (single isomer, unassigned; (+))
101 to 102 | O=C(C=Cc1cncnc1)CCCCc1ccc2c(n1)NCCC2

melting point [°C] | Structure (SMILES)
215 to 217 | CC(=NO)c1ccnc(N)c1
140 to 141 | CC(=O)Nc1ccccc1N1CCOCC1
168 to 170 | O=C1Cc2cc(CCCl)ccc2N1
110 | CCON=C(C)C(C)=NOc1ncccc1C(=NOC)C(=O)NC
218 to 220 | CCOC(=O)c1cnc2c(c1O)CC(CC)CC2 (stereo unspecified)
165 to 167 | NS(=O)(=O)c1cc2cc(C=O)sc2o1
107 | CCCc1nc(C#N)c(C#N)n1C(c1ccccc1)(c1ccccc1)c1ccccc1
162 to 163 | CCOc1ccc(-c2ncccc2S(=O)(=O)Nc2ncc(C)nc2OC)cc1
135 to 136 | CCOC(=O)C(Cc1ccc(S(C)=O)cc1)(NC(C)=O)C(=O)OCC (stereo unspecified)
195 | COc1cc(CCN2CCCCC2)cc(OC)c1-c1ccc(C[C@H](NC(=O)c2c(Cl)cccc2Cl)C(=O)O)cc1
110 to 112 | NC(=O)c1ncccc1OCCNCc1ccccc1
142 to 143 | CCOC(=O)c1c(OC(C)C)nc2cc(OC)c(OC)cc2c1-c1ccc(OC)c(OC)c1
138 to 139 | O=C(NCCCCOc1ccc(-n2ccnc2)cc1)c1ccc(Cl)cc1
195 to 197 | O=C(NCc1ccc(Cl)cc1)c1cn2c3c(cc(CN4CCOCC4)cc3c1=O)OCCC2
200 to 201 | CC1(C)CCCC(C)(C)N1Cc1ccc2cc(NC(=O)c3ccc(-c4ccccc4)cc3)ccc2n1
82.7 | CC(C)(C)OC(=O)N1CCC(Nc2cccc(NC(=O)c3ccc(F)cc3)n2)CC1
103 to 105 | Cc1ccc(S(=O)(=O)OCC2Cc3c(C)c(Cl)cc(C(C)C)c3O2)cc1 (stereo unspecified)
